Among the data in JP2016013988A, “エステル化合物” (Mitsubishi Gas Chemical Co Inc, priority 2014, dated 2016) are APHA values, retold here.

The nature of the data set: APHA (colour number) of the purified diester. Format: physicochemical. The note with it: after KOH/water washing, removal of acid under reduced pressure and activated carbon treatment.
Take `CCCCC(CC)C(=O)OCC(C)(C)COCC(C)(CCC)COC(=O)C(CC)CCCC` (stereo not drawn) [実施例4, ビス(2−エチルへキサン酸) 4−オキサ−2−プロピル−2,6,6−トリメチルヘプタン−1,7−ジイル]: the APHA is 22. As for `CCCCC(CC)(COCC(C)(C)COC(=O)C(C)(C)C)COC(=O)C(C)(C)C` (stereo not drawn) [実施例1, ジピバリン酸 4−オキサ−2−ブチル−2−エチル−6,6−ジメチルヘプタン−1,7−ジイル], the figure is 28; as for `CCCC(C)(COCC(C)(C)COC(=O)C(C)(C)C)COC(=O)C(C)(C)C` (stereo not drawn) [実施例2, ジピバリン酸 4−オキサ−2−プロピル−2,6,6−トリメチルヘプタン−1,7−ジイル], 27.
